In one data set the target is Cytochrome P450 2C19 (Homo sapiens, UniProt P33261). The experiment in a line: Cytochrome panel assay with activity outcomes. Panel member name: p450-cyp2c19 Compounds with AC50 equal or less than 10 uM are considered active. It is filed as functional. The settings on record: read-out: AC50.
The target in a further data set is T1, Cytochrome P450 1A2 (Homo sapiens, UniProt P05177).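 Also: PubChem cytochrome P450 panel assay, CYP1A2 panel member.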
T1 sequence (P05177 whole entry): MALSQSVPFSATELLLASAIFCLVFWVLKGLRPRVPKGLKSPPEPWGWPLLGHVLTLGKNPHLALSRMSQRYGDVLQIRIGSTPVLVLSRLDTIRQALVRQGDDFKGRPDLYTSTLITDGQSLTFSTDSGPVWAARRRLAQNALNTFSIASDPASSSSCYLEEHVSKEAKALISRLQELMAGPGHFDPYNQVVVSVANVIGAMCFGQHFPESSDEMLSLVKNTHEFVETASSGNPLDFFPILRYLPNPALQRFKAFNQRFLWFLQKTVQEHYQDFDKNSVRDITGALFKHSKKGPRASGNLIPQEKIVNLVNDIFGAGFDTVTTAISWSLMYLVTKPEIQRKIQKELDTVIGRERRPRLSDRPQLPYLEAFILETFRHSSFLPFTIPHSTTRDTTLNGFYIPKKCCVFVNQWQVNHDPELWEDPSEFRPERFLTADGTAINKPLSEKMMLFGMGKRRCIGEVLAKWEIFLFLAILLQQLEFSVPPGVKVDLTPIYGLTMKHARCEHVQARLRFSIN

Data set [1] concerns the target T2, Cytochrome P450 2C9 (Homo sapiens, UniProt P11712).
For a further data set, the target named is Cytochrome P450 3A4 (Homo sapiens, UniProt P08684).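 Also: CYP3A4 tested as one member of a cytochrome P450 panel screen.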
Cytochrome P450 3A4, sequence (P08684 whole entry): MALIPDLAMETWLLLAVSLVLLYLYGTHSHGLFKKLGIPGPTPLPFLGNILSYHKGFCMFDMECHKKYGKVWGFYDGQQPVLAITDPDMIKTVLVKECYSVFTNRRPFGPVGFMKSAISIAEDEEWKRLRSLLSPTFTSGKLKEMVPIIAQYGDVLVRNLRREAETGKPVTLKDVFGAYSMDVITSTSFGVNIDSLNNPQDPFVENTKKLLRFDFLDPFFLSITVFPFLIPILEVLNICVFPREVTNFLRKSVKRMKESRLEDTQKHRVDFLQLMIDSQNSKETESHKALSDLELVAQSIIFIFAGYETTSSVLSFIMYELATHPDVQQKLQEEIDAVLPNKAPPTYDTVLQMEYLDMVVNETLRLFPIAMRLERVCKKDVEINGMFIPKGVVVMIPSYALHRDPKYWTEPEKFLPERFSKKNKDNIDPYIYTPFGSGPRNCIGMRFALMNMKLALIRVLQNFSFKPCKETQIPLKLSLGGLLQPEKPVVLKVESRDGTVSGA
Data set [2] concerns the target T3, Fatty acid synthase (Homo sapiens, UniProt P49327). The experiment in a line: inhibition of human FAS-TE enzyme activity – biochemical, kinetic fluorescence intensity, dose response (AID 624326).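 Also: rate of fluorescence rise from hydrolysis of a fluorogenic O-methyl fluorescein ester substrate.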 It is filed as functional.
For data set [3], the target named is T3, Fatty acid synthase. The experiment in a line: inhibition of human FAS-TE enzyme activity – biochemical, endpoint fluorescence intensity, uHTS hits, dose response (AID 624327).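 Also: fluorescence from hydrolysis of an O-methyl fluorescein acyl ester substrate by the enzyme.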 It is filed as functional.
A short description of data set [4]: non-specific 3'UTR reporter inhibition in Clone20-Shn3RL – cell-based, Renilla luciferase, cherry-picked, counter-screen for Shn3 inhibitor project, dose response (AID 624133). It is filed as functional. A general note: The purpose of a counterscreen is to sort out artefacts and off-target activity.
Data set [5] in a line: Luminescence Cell-Based Dose Retest to Confirm Inhibitors of Cancer Stem Cells. [Related pubchem assays (depositor defined):AID2717, AID2721]. It is filed as functional. The settings on record: Homo sapiens.
Data set [6] in a line: loss of viability in HepG2 cells – cell-based, CellTiter-Glo, cherry-picked, cytotoxicity control for Shn3 inhibitor project, dose response (AID 624134). It is filed as functional.
Data set [7] is described as follows: reduction of Shn3 3'UTR-driven luciferase in osteoblasts – cell-based, Clone20 osteoblasts, firefly luciferase, cherry-picked, dose response (AID 624132).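 Also: firefly luciferase luminescence from reporter carrying the Shn3 3'UTR in osteoblasts.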 It is filed as functional.
Data set [8] deals with T2, Cytochrome P450 2C9. This is another data set of the same source.
A short description of data set [9]: microbe, parasite or virus in culture. It is filed as functional. The settings on record: Mycobacterium tuberculosis.
In the next data set the target is Cytochrome P450 2D6 (Homo sapiens, UniProt P10635).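 Also: CYP2D6 member of a cytochrome P450 panel assay.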
Cytochrome P450 2D6, sequence (P10635 whole entry): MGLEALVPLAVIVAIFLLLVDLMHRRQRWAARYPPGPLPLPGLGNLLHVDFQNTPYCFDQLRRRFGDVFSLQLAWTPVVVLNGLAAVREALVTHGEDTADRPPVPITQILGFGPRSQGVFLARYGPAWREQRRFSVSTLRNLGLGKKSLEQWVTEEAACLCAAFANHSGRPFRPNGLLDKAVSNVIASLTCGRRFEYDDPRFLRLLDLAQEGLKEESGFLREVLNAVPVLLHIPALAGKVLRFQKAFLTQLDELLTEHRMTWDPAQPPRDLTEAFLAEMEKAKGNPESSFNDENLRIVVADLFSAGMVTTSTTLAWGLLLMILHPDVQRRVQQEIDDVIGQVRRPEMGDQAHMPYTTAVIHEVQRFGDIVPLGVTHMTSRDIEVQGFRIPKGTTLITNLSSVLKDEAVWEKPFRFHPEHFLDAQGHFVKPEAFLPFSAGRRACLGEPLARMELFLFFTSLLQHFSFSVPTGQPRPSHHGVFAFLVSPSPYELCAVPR
For data set [10], the system named is Streptococcus sp. 'group A'. The experiment in a line: Streptococcus pyogenes SK(-)GAS viability under kanamycin – luminescence, BacTiterGlo, confirmation, counter-screen for streptokinase expression inhibitor project, dose response (AID 1900). It is filed as functional, organism-based.
The test system of another data set is Streptococcus. As to the kind of experiment: GAS UMAA2166 growth inhibition – luminescence, BacTiterGlo, counter-screen for streptokinase expression inhibitor project, dose response (AID 1915).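 Also: potency for reduction of bacterial viability or growth.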 It is filed as functional, organism-based.
The target of a further data set is T4, Streptokinase A (Streptococcus pyogenes serotype M1, UniProt P10520).
T4 sequence (P10520 whole entry): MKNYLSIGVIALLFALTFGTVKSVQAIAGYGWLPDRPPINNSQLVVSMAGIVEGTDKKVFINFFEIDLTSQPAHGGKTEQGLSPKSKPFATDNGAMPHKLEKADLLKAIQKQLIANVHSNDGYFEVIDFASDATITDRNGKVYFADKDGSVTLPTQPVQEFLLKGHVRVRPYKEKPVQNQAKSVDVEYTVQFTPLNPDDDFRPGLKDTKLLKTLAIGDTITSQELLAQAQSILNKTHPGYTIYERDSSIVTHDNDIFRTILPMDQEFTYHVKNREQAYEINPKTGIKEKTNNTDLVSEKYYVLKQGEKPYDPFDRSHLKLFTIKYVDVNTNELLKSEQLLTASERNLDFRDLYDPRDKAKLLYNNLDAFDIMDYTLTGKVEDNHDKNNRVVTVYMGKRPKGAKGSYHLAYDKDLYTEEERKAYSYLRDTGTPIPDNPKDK
As to the kind of experiment: viability-normalized secreted streptokinase activity reduction – plasminogen activation absorbance, OD405, dose response (AID 1914).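 Also: secreted streptokinase activity via plasminogen activation per viability signal from cell pellet.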 It is filed as functional, Streptococcus pyogenes M1 GAS.

Data set [11] in a line: NIH3T3 cell viability loss – ATP luminescence, mouse fibroblasts, counter-screen, dose response (AID 2010).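 Also: cells exposed to compound for about 90 hours before reading.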 It is filed as functional, cell-based.
The nature of data set [12]: Trypanosoma cruzi growth suppression in host cells – NIH3T3 host cells, beta-gal luminescence, confirmation (AID 2044).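 Also: intracellular parasites grown in NIH/3T3 mouse fibroblasts as host cells; luminescent beta-galactosidase reporter signal from transgenic T. cruzi replicating inside host cells; inhibitors lower the luminescence signal.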 It is filed as functional, cell-based.

The structures appear in SMILES notation. The source made the active and inactive calls.

T3 sequence (P49327 whole entry): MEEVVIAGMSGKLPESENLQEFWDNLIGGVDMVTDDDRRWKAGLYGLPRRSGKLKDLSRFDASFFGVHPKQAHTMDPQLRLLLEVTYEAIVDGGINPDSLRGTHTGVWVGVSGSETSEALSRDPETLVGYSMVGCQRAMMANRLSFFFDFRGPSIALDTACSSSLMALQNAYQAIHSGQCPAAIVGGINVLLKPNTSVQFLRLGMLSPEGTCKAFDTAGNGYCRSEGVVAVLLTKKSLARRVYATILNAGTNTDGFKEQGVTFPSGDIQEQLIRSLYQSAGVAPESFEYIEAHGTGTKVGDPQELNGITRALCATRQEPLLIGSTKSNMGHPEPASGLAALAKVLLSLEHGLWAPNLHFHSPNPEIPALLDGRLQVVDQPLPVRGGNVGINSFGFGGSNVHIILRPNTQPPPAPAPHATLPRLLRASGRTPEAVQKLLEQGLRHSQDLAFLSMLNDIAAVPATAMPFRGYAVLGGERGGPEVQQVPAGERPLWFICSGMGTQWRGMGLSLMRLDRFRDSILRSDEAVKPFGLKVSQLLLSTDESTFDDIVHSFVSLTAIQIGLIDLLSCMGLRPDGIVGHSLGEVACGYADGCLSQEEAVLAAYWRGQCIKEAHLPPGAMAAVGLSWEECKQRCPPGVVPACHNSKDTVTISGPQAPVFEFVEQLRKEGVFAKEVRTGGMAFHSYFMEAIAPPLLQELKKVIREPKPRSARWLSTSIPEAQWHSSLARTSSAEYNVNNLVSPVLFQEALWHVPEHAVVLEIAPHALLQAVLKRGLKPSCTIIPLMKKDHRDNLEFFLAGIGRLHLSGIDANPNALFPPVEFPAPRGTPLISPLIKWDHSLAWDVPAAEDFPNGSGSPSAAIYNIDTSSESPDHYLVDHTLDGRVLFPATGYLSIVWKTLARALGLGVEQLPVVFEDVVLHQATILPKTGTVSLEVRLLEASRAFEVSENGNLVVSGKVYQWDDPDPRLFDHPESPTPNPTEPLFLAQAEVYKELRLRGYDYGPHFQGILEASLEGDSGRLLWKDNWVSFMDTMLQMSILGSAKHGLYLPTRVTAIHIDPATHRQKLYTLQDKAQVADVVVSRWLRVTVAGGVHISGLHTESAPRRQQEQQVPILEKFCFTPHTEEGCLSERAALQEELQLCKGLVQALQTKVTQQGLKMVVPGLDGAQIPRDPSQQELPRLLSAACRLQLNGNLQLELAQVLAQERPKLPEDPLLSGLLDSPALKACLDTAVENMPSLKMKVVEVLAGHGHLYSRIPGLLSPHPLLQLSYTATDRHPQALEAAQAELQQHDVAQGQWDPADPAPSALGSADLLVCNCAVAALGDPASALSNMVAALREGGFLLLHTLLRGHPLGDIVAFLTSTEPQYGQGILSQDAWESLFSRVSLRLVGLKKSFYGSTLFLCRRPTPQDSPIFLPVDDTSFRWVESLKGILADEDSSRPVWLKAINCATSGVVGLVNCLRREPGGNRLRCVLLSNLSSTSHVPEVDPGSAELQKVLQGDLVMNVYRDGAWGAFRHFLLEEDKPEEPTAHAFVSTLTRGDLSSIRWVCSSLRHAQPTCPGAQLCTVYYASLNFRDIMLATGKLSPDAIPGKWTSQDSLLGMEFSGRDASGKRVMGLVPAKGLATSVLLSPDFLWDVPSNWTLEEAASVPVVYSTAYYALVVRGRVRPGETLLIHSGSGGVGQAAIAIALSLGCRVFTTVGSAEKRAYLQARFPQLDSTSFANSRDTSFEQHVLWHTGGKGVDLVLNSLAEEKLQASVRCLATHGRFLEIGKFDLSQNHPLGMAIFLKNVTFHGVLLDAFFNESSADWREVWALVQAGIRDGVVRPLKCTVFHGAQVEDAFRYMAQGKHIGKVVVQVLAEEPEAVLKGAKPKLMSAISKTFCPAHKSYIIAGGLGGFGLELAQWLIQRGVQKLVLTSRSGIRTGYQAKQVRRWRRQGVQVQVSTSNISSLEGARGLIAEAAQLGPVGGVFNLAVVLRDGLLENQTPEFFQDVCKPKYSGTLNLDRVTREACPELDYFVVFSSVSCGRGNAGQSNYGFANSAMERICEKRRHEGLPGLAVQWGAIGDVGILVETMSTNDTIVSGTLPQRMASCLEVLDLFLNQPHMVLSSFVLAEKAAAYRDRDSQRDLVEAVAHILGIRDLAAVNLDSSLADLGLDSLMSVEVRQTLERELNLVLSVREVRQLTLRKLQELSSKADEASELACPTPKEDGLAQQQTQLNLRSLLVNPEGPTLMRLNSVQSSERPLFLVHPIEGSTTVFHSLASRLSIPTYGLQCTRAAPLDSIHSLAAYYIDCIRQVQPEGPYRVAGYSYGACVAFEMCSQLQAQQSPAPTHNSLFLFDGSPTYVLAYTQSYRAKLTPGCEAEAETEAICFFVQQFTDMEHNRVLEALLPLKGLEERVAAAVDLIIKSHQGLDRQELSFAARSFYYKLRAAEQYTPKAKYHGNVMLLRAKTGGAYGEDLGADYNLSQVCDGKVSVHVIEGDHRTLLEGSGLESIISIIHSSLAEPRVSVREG
Cytochrome P450 2C19, sequence (P33261 whole entry): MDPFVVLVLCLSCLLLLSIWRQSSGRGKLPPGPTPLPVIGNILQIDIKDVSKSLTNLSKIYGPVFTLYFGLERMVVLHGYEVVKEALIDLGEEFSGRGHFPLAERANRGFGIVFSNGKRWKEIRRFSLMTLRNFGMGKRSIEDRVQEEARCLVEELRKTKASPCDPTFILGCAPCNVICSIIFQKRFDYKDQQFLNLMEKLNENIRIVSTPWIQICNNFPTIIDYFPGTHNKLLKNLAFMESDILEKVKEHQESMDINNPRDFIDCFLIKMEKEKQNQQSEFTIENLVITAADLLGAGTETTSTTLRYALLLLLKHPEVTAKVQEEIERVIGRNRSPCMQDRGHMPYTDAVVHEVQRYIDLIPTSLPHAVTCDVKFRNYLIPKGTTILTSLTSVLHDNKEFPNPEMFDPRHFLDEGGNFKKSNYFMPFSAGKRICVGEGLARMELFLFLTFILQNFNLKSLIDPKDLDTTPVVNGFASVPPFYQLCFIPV
T2 sequence (P11712 whole entry): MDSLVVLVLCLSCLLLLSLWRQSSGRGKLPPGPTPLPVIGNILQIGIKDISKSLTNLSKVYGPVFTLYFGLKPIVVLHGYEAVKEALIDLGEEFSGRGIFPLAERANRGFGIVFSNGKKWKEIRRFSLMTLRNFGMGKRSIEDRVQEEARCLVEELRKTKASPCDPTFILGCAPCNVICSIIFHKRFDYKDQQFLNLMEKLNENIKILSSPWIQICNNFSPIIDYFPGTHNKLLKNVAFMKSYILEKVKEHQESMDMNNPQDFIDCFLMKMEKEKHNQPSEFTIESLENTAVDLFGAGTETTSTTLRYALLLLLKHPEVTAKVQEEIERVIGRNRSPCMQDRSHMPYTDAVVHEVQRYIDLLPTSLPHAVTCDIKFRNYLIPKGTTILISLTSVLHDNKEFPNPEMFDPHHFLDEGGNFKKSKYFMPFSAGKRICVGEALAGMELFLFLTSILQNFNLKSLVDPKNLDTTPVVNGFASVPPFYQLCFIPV

Turning to `CCCCCCCC/C=C\CCCCCCCC(=O)N[C@@H](CO)Cc1ccc(O)cc1`, the AC50 – broadly, the concentration at which the activity in the assay is half-maximal – is 31.6 µM (inconclusive) at Cytochrome P450 2C19, 25.1 µM (inconclusive) on Cytochrome P450 1A2 and “inconclusive” on Cytochrome P450 2C9 [1].
As for `O=c1cnc2cnc(N3CCOCC3)nc2n1C[C@H]1CCCO1`, the figures for the AC50 at Cytochrome P450 3A4 and on Cytochrome P450 2C9 [1] were 15.8 µM (inconclusive) and “inconclusive”, respectively.
As for `CCn1c(C)c(C(C)=O)c(N2CCN(C(c3ccccc3)c3ccccc3)CC2)nc1=S`, the values for the IC50 on Fatty acid synthase [2] and at Fatty acid synthase [3] were 23.1 µM (inactive) and 8.43 µM (active), respectively.
`CC(C)C[C@@H](CO)N(Cc1ccccc1)S(=O)(=O)N(Cc1ccccc1)[C@@H](CO)CC(C)C`: the AC50 in data set [4] was 31 µM (active); in data set [5] it was 4.21 µM (active); in [6], 21.9 µM (active); in [7], 11.4 µM (active).
As to `O=C1Nc2cc(Cl)c(Cl)cc2N(O)N1c1ccc(Cl)c(Cl)c1`, the AC50 on Cytochrome P450 3A4 was 39.8 µM (inconclusive); on Cytochrome P450 2C19, 28.2 µM (inconclusive); at Cytochrome P450 2C9 [8] it was 3.98 µM (inconclusive). Further, the IC50 (commonly the concentration that gives 50% inhibition) is 12 µM (active) at Fatty acid synthase [2] and 6.59 µM (active) on Fatty acid synthase [3].
Consider `Clc1ccc(CNc2nc(CN3CCOCC3)nc3scc(-c4ccccc4)c23)cc1`, for which the CC50 in data set [9] was > 40 µM (active).
With `C=CCOc1ccc(CNC(C)(C)CO)cc1OCC.Cl`, at Cytochrome P450 2C9 [1], the AC50 result is given as “inconclusive”.
For `O=C(Cc1ccccc1[N+](=O)[O-])NCc1ccccc1Cl`, the AC50 at Cytochrome P450 3A4 was 15.8 µM (inconclusive); at Cytochrome P450 2D6 it was 15.8 µM (inconclusive); on Cytochrome P450 2C9 [1], “inconclusive”.
As to `COC(=O)CCC(=O)NNC(=O)CCCOc1ccc(Cl)cc1Cl`, the AC50 at Cytochrome P450 3A4 was 15.8 µM (inconclusive); on Cytochrome P450 2C19 it was 3.55 µM (inconclusive); on Cytochrome P450 2C9 [1], “inconclusive”.
Consider `Cc1cccc(COCC(CC(C)C)N2CCN(C(=O)c3ccc(C(C)(C)C)cc3)CCC2=O)c1` (centres undefined), for which the values for the IC50 on Fatty acid synthase [2] and at Fatty acid synthase [3] were 6.11 µM (active) and 8.21 µM (active), respectively.
Consider `Cc1cccc(NC(=O)c2[nH]cnc2C(=O)N[C@@H](CCCCNC(=O)OC(C)(C)C)C(=O)OC(C)(C)C)c1`, for which the EC50 (in general, the midpoint of the concentration-response curve) in data set [10] is 3.46 µM (active); in the data set on Streptococcus it was 8.6 µM (active); on Streptokinase A it was > 150 µM (not active); in [11], > 60 µM (not active); in data set [12], 2.44 µM (active). In addition, the results for the IC50 at Fatty acid synthase [2] and at Fatty acid synthase [3] were 0.658 µM (active) and 1.12 µM (active), respectively.
Consider `COc1ccc(C2=NN(C(=O)CSc3nc(=O)n4cc(C)ccc4n3)C(c3ccc(C)cc3)C2)cc1` (centres undefined), for which the IC50 was 12.9 µM (active) at Fatty acid synthase [2] and 19.2 µM (active) at Fatty acid synthase [3].
With `Cc1cc(C(=O)CSc2nc(N)cc(O)n2)c(C)n1-c1cccc(F)c1`, the AC50 in [4] was 26.2 µM (active); in [6], > 70 µM (inactive); in data set [7], 1.66 µM (active).
Regarding `NP(=O)(Oc1ccccc1Cl)Oc1ccccc1Cl`, the IC50 on Fatty acid synthase [2] is 8.31 µM (active); at Fatty acid synthase [3], 5.09 µM (active).
On to `Cc1cc(C)cc(-n2nnnc2SCC(=O)Nc2nc(-c3ccc(F)cc3)cs2)c1`, for which the AC50 was 5.01 µM (inconclusive) at Cytochrome P450 2C19, 3.16 µM (inconclusive) on Cytochrome P450 1A2 and “inconclusive” at Cytochrome P450 2C9 [1].
With `O=C(O)CC(NC(=O)CC(c1ccccc1)c1ccccc1)c1cccc([N+](=O)[O-])c1` (centres undefined), the IC50 at Fatty acid synthase [2] was 9.88 µM (active); on Fatty acid synthase [3], 7.88 µM (active).
In the case of `COc1ccc(N2COC3c4cccc5cccc(c45)C32)cc1` (centres undefined), the CC50 in data set [9] was > 40 µM (active).
As to `Cc1ccc(OC(=O)c2oc3ccc(F)cc3c2C)c(C)c1`, the AC50 was 39.8 µM (inconclusive) at Cytochrome P450 3A4, 11.2 µM (inconclusive) at Cytochrome P450 2C19 and 10 µM (inconclusive) on Cytochrome P450 2C9 [8]. In addition, in data set [9], the CC50 was 3.94 µM (active).
As for `CN(C)Cc1ccccc1-c1cc(NC2CC2)ncn1`, the AC50 entry on Cytochrome P450 2C9 [1] is reported as “inconclusive”.
Regarding `c1ccc(CN=C(NCc2ccccc2)NCc2ccccc2)cc1`, the AC50 in [4] is 2.06 µM (active); in data set [6] it was 21.9 µM (active); in [7] it was 1.79 µM (active).
As to `COc1ccc(S(=O)(=O)N2CCC(C(=O)NCC3CCCO3)CC2)cc1C` (centres undefined), the values for the AC50 on Cytochrome P450 3A4 and on Cytochrome P450 2C9 [1] were 15.8 µM (inconclusive) and “inconclusive”, respectively.
`CC(C)c1ccc(NC(=O)Nc2nc(C(N)CCc3ccccc3)cs2)cc1` (centres undefined): the values for the AC50 in [4], in data set [6] and in data set [7] were 10.3 µM (active), 10.6 µM (active) and 5.36 µM (active), respectively.
For the molecule `O=C(Nc1ccccc1[N+](=O)[O-])OCC=Cc1ccccc1`, the IC50 was 6.3 µM (active) at Fatty acid synthase [2] and 8.17 µM (active) on Fatty acid synthase [3].
For the molecule `CC(C)c1ccc2c(c1)c(SC(C)(C)C)c(CC(C)(C)C(=O)O)n2Cc1ccc(Cl)cc1`, in data set [5], the concentration at half-maximal activity (AC50) was 1.58 µM (active). For the same molecule, the IC50 at Fatty acid synthase [2] was 8.48 µM (active); at Fatty acid synthase [3], 10.1 µM (active).

The values above are taken from ChEMBL document CHEMBL1201862, “PubChem BioAssay data set” (2004).
